# Data reported in patent publication US10273226B2, “Pyrazolyl-heteroarylamides as pesticides” (Bayer Animal Health GmbH, priority 2014, dated 2019).
# What was measured:
# Format in all cases: in vivo
# [1] = tested on: Rhipicephalus sanguineus; experiment: Rhipicephalus sanguineus in vitro contact test with adult brown dog ticks; details: application rate 5 μg/cm^2 (500 g/ha); after 48 h; ticks dead or moribund
# Summary of the method: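 Test tubes (25 ml) were coated by dissolving active ingredient in acetone p.a., diluting to the required concentration, and spreading 250 μl over the inner walls and base on an orbital shaker at 30 rpm for 2 h. Once dry, 5-10 adult Rhipicephalus sanguineus were added, and tubes were capped with perforated lids and kept horizontal in darkness at room temperature. At 48 h, ticks were knocked down and heated at 45-50° C. for up to 5 min. Those unable to climb away were counted dead or moribund, and efficacy ran from 0% to 100%.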
# [2] = tested on: Phaedon cochleariae; experiment: Phaedon cochleariae spray test; details: application rate 100 g/ha; larvae; after 7 days
# Summary of the method: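 Chinese cabbage leaf discs were sprayed with the compound formulated in water containing 1000 ppm emulsifier. After drying, they were infested with mustard beetle larvae. Efficacy was scored as % larvae killed after 7 days (100% = all dead, 0% = none).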
# [3] = tested on: Aedes aegypti strain MONHEIM; experiment: Aedes test (AEDSAE surface treatment); details: 24 hours after contact, read-out: efficacy (mortality in %)
# Experimental: Aedes Test (AEDSAE Surface Treatment)
# Solvent: acetone+2000 ppm rapeseed oil methyl ester (RME)
# To produce an appropriate active ingredient formulation, the active ingredient is dissolved in the solvent (2 mg/ml). The active ingredient formulation is pipetted onto a glazed tile and, after it has dried off, adult mosquitoes of the species Aedes aegypti strain MONHEIM are placed onto the treated tile. The exposure time is 30 minutes.
# 24 hours after contact with the treated surface, mortality in % is determined. 100% means that all the mosquitoes have been killed; 0% means that none of the mosquitoes have been killed.
# [4] = tested on: Tetranychus urticae; experiment: Tetranychus urticae spray test, OP-resistant; details: application rate 100 g/ha; after 6 days
# Summary of the method: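 Bean leaf discs (Phaseolus vulgaris) carrying all stages of OP-resistant mites are sprayed with compound formulated in solvent and emulsifier-containing water. Efficacy (% mites killed) is scored after 6 days.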
smiles,measurement,setting,value
"Cn1nc(C(F)(F)C(F)(F)F)c(C(F)(F)F)c1-n1cc(-c2cccc(NC(=O)c3ccncc3)c2)cn1 [Example 1-001, N-{3-[2′-Methyl-5′-(pentafluoroethyl)-4′-(trifluoromethyl)-2′H-1,3′-bipyrazol-4-yl]-phenyl}isonicotinamide]",efficacy,[1],100%
same,efficacy,[2],100%
same,mortality at 20 mg/m2,"[3]; application rate 20 mg/m^2, exposure 30 minutes",90 to 100%
same,mortality at 100 mg/m2,"[3]; application rate 100 mg/m^2, exposure 30 minutes",90 to 100%
same,efficacy,[4],100%
